pIC50: −log10 of the molar value.

This experiment deals with γ-secretase. Nature of the experiment: Cellular γ-secretase assay (inhibition of Aβ42 secretion). The note with it: human neuroglioma H4 cells overexpressing human APP, incubation for 22 hrs, read-out: IC50 in vitro. It counts as cell-based. As to the method:
Cellular γ-Secretase Assay
Human neuroglioma H4 cells overexpressing human APP were plated at 30,000 cells/well/200 μl in 96-well plates in IMDM media containing 10% FCS, 0.2 mg/l Hygromycin B and incubated for 2 h at 37° C., 5% CO2 prior to adding test compounds.
Compounds for testing were dissolved in 100% Me2SO yielding in a 10 mM stock solution.
Typically 12 μl of these solutions were further diluted in 1000 μl of IMDM media (w/o FCS,). Sub sequential 1:1 dilutions gave a ten point dose response curve. 100 μl of each dilution was added to the cells in 96-well plates. Appropriate controls using vehicle only and reference compound were applied to this assay. The final concentration of Me2SO was 0.4%.
After incubation for 22 hrs at 37° C., 5% CO2, 50 μl supernatant was transferred into round-bottom 96-well polypropylene plates for detection of Aβ42. 50 μl assay buffer (50 mM Tris/Cl, pH 7.4, 60 mM NaCl, 0.5% BSA, 1% TWEEN 20) was added to the wells followed by the addition of 100 μl of detection antibody (ruthenylated BAP15 0.0625 μg/ml in assay buffer). 50 μl of a premix of capture antibody (biotinylated 6E10 antibody, 1 μg/ml) and Steptavidin-coated magnetic beads (Dynal M-280, 0.125 mg/ml) were preincubated for 1 hr at room temperature before adding the assay plates. Assay plates were incubated on a shaker for 3 hrs at room temperature and finally read in the Bioveris M8 Analyser according to the manufacturer's instructions (Bioveris).
IC50 values for inhibition of Aβ42 secretion were calculated by nonlinear regression fit analysis using XLfit 4.0 software (IDBS).
The pIC50 is −log10 of the IC50, conventionally taken in molar units. As for `COc1cc(Nc2nc(C)c(Cc3cccc(Cl)c3)s2)ccc1-n1cnc(C)c1` [Example 1, [5-(3-Chloro-benzyl)-4-methyl-thiazol-2-yl]-[3-methoxy-4-(4-methyl-imidazol-1-yl)-phenyl]-amine], the pIC50 is 6.68.

Regarding `COc1cc(Nc2nc(C)c(Cc3ccc(Cl)cc3)s2)ccc1-n1cnc(C)c1` [Example 2, [5-(4-Chloro-benzyl)-4-methyl-thiazol-2-yl]-[3-methoxy-4-(4-methyl-imidazol-1-yl)-phenyl]-amine], the negative-log IC50 (pIC50) was 6.62. In the case of `Cc1cn(-c2ccc(Nc3nc(C)c(Cc4cccc(Cl)c4)s3)cc2C#N)cn1` [Example 4, 5-[5-(3-Chloro-benzyl)-4-methyl-thiazol-2-ylamino]-2-(4-methyl-imidazol-1-yl)-benzonitrile], the pIC50 is 6.12. In the case of `COc1cc(Nc2nc(C)c(Cc3ccc(C#N)cc3)s2)ccc1-n1cnc(C)c1` [Example 6, 4-{2-[3-Methoxy-4-(4-methyl-imidazol-1-yl)-phenylamino]-4-methyl-thiazol-5-ylmethyl}-benzonitrile], the pIC50 was 6.06. Turning to `COc1cc(Nc2nc(C)c(Cc3ccccc3Cl)s2)ccc1-n1cnc(C)c1` [Example 7, [5-(2-Chloro-benzyl)-4-methyl-thiazol-2-yl]-[3-methoxy-4-(4-methyl-imidazol-1-yl)-phenyl]-amine], the negative-log IC50 (pIC50) was 6.28. In the case of `COc1cc(Nc2nc(C)c(Cc3ccc(C(C)(C)C)cc3)s2)ccc1-n1cnc(C)c1` [Example 8, [5-(4-tert-Butyl-benzyl)-4-methyl-thiazol-2-yl]-[3-methoxy-4-(4-methyl-imidazol-1-yl)-phenyl]-amine], the negative-log IC50 (pIC50) was 6.24. In the case of `COc1cc(Nc2nc(C)c(Cc3cccc(C(F)(F)F)c3)s2)ccc1-n1cnc(C)c1` [Example 9, [3-Methoxy-4-(4-methyl-imidazol-1-yl)-phenyl]-[4-methyl-5-(3-trifluoromethyl-benzyl)-thiazol-2-yl]-amine] it was 6.04. In the case of `COc1ccc(Br)cc1-c1csc(Nc2ccc(-n3cnc(C)c3)c(OC)c2)n1` [Example 16, [4-(5-Bromo-2-methoxy-phenyl)-thiazol-2-yl]-[3-methoxy-4-(4-methyl-imidazol-1-yl)-phenyl]-amine], the negative-log IC50 (pIC50) was 6.05. With `COc1ccc(Br)cc1-c1csc(Nc2ccc(-n3cnc(C)c3)cc2)n1` [Example 21, [4-(5-Bromo-2-methoxy-phenyl)-thiazol-2-yl]-[4-(4-methyl-imidazol-1-yl)-phenyl]-amine], the pIC50 is 6.06. Regarding `COc1ccc(Br)cc1-c1csc(Nc2ccc(-n3ccnc3)c(OC)c2)n1` [Example 22, [4-(5-Bromo-2-methoxy-phenyl)-thiazol-2-yl]-(4-imidazol-1-yl-3-methoxy-phenyl)-amine], the pIC50 is 6.10.

As for `COc1cc(Nc2nc(CC(=O)Nc3ccc(F)cc3)cs2)ccc1-n1cnc(C)c1` [Example 29, N-(4-Fluoro-phenyl)-2-{2-[3-methoxy-4-(4-methyl-imidazol-1-yl)-phenylamino]-thiazol-4-yl}-acetamide], the negative-log IC50 (pIC50) was 6.02. Next, `COc1cc(Nc2nc([C@H](CC(C)C)NC(=O)OC(C)(C)C)cs2)ccc1-n1cnc(C)c1` [Example 30, ((S)-1-{2-[3-Methoxy-4-(4-methyl-imidazol-1-yl)-phenylamino]-thiazol-4-yl}-3-methyl-butyl)-carbamic acid tert-butyl ester]: 6.41. `COc1cc(Nc2nc([C@H](CC(C)C)NC(=O)Cc3ccc(F)cc3)cs2)ccc1-n1cnc(C)c1` [Example 34, 2-(4-Fluoro-phenyl)-N—((S)-1-{2-[3-methoxy-4-(4-methyl-imidazol-1-yl)-phenylamino]-thiazol-4-yl}-3-methyl-butyl)-acetamide]: the negative-log IC50 (pIC50) was 6.28. Take `COc1cc(Nc2nc([C@H](CC(C)C)NC(=O)c3ccc(F)cc3)cs2)ccc1-n1cnc(C)c1` [Example 37, 4-Fluoro-N—((S)-1-{2-[3-methoxy-4-(4-methyl-imidazol-1-yl)-phenylamino]-thiazol-4-yl}-3-methyl-butyl)-benzamide]: the pIC50 is 6.39. Take `COc1cc(Nc2nc([C@H](CC(C)C)NC(=O)CC(F)(F)F)cs2)ccc1-n1cnc(C)c1` [Example 38, 3,3,3-Trifluoro-N—((S)-1-{2-[3-methoxy-4-(4-methyl-imidazol-1-yl)-phenylamino]-thiazol-4-yl}-3-methyl-butyl)-propionamide]: the pIC50 was 6.54. On to `COc1cc(Nc2nc([C@H](CC(C)C)NS(=O)(=O)c3ccc(F)cc3)cs2)ccc1-n1cnc(C)c1` [Example 39, 4-Fluoro-N—((S)-1-{2-[3-methoxy-4-(4-methyl-imidazol-1-yl)-phenylamino]-thiazol-4-yl}-3-methyl-butyl)-benzene sulfonamide], for which the pIC50 was 6.04.

In the case of `COc1cc(Nc2nc([C@H](CC(C)C)NS(=O)(=O)Cc3ccccc3)cs2)ccc1-n1cnc(C)c1` [Example 40, N—((S)-1-{2-[3-Methoxy-4-(4-methyl-imidazol-1-yl)-phenylamino]-thiazol-4-yl}-3-methyl-butyl)-C-phenyl-methanesulfonamide], the negative logarithm of the IC50 (pIC50) was 6.26. For `COc1cc(Nc2nc([C@H](CC(C)C)NS(C)(=O)=O)cs2)ccc1-n1cnc(C)c1` [Example 41, N—((S)-1-{2-[3-Methoxy-4-(4-methyl-imidazol-1-yl)-phenylamino]-thiazol-4-yl}-3-methyl-butyl)-methane sulfonamide], the negative-log IC50 (pIC50) was 6.05.

For the compound `CCOC(=O)c1sc(Nc2ccc(-n3cnc(C)c3)c(OC)c2)nc1C(F)(F)F` [Example 42, 2-[3-Methoxy-4-(4-methyl-imidazol-1-yl)-phenylamino]-4-trifluoromethyl-thiazole-5-carboxylic acid ethyl ester], the negative-log IC50 (pIC50) was 6.19.

As to `COc1cc(Nc2nc3c(s2)CN(C(=O)OC(C)(C)C)CC3)ccc1-n1cnc(C)c1` [Example 43, 2-[3-Methoxy-4-(4-methyl-imidazol-1-yl)-phenylamino]-6,7-dihydro-4H-thiazolo[5,4-c]pyridine-5-carboxylic acid tert-butyl ester], the pIC50 was 6.10. In the case of `COc1cc(Nc2nc([C@H](Cc3ccccc3)NS(=O)(=O)c3ccc(C)cc3)cs2)ccc1-n1cnc(C)c1` [Example 55, N—((S)-1-{2-[3-Methoxy-4-(4-methyl-imidazol-1-yl)-phenylamino]-thiazol-4-yl}-2-phenyl-ethyl)-4-methyl-benzenesulfonamide], the pIC50 is 6.10. `COc1cc(Nc2ncc(C(O)c3ccccc3)s2)ccc1-n1cnc(C)c1` (centres unmarked) [Example 62, {2-[3-Methoxy-4-(4-methyl-imidazol-1-yl)-phenylamino]-thiazol-5-yl}-phenyl-methanol]: the negative logarithm of the IC50 (pIC50) was 6.24. Next, `COc1cc(Nc2nc(C)c(Cc3ccc(Cl)c(C(F)(F)F)c3)s2)ccc1-n1cnc(C)c1` [Example 68, [5-(4-Chloro-3-trifluoromethyl-benzyl)-4-methyl-thiazol-2-yl]-[3-methoxy-4-(4-methyl-imidazol-1-yl)-phenyl]-amine]: 6.05. Turning to `COc1cc(Nc2nc(C)c(Cc3cccc(OC(F)(F)C(F)F)c3)s2)ccc1-n1cnc(C)c1` [Example 69, [3-Methoxy-4-(4-methyl-imidazol-1-yl)-phenyl]-{4-methyl-5-[3-(1,1,2,2-tetrafluoro-ethoxy)-benzyl]-thiazol-2-yl}-amine], the pIC50 is 6.14. Take `COc1cc(Nc2nc(C)c(Cc3ccc(C)c(Cl)c3)s2)ccc1-n1cnc(C)c1` [Example 70, [5-(3-Chloro-4-methyl-benzyl)-4-methyl-thiazol-2-yl]-[3-methoxy-4-(4-methyl-imidazol-1-yl)-phenyl]-amine]: the negative logarithm of the IC50 (pIC50) is 6.15. With `COc1cc(Nc2nc(C)c(Cc3ccc(Cl)c(Cl)c3)s2)ccc1-n1cnc(C)c1` [Example 71, [5-(3,4-Dichloro-benzyl)-4-methyl-thiazol-2-yl]-[3-methoxy-4-(4-methyl-imidazol-1-yl)-phenyl]-amine], the negative-log IC50 (pIC50) is 6.55.

For `COc1cc(Nc2ncc(C(O)c3ccc(Cl)cc3)s2)ccc1-n1cnc(C)c1` (centres unmarked) [Example 76, (4-Chloro-phenyl)-{2-[3-methoxy-4-(4-methyl-imidazol-1-yl)-phenylamino]-thiazol-5-yl}-methanol], the pIC50 was 6.47. `COc1cc(Nc2nc(C(C)(C)c3ccc(Cl)cc3)cs2)ccc1-n1cnc(C)c1` [Example 77, {4-[1-(4-Chloro-phenyl)-1-methyl-ethyl]-thiazol-2-yl}-[3-methoxy-4-(4-methyl-imidazol-1-yl)-phenyl]-amine]: the pIC50 is 6.85. On to `COc1cc(Nc2nc(C(C)(C)c3cc(F)c(F)c(F)c3)cs2)ccc1-n1cnc(C)c1` [Example 78, [3-Methoxy-4-(4-methyl-imidazol-1-yl)-phenyl]-{4-[1-methyl-1-(3,4,5-trifluoro-phenyl)-ethyl]-thiazol-2-yl}-amine], for which the pIC50 is 6.17.

Values taken from patent US7910740B2, “Modulators of amyloid beta” (Hoffmann-La Roche Inc., priority 2007, dated 2011).
